Experimental findings from US20250282799A1, “SUBSTITUTED PYRIDO[4,3-d]PYRIMIDINES AS KRAS MODULATORS” (Alterome Therapeutics, Inc., priority 2023, published 2025) are described below.

By IC50 is commonly meant the point on the concentration scale where inhibition reaches its midpoint.

In the first assay the test system is KRAS G12V dependent lung adenocarcinoma cell line, NCI-H441. Nature of the assay: Cellular pERK (Thr202/Tyr204) FRET/HTRF assay. Format: cell-based. The conditions noted are these: Homo sapiens, NCI-H441, cellular pERK (Thr202/Tyr204) HTRF, NCI-H441 cells. From the text: “Ras” refers to a protein in the Ras superfamily of small GTPases, such as in the Ras subfamily. […] The Ras proteins play a critical role in the regulation of cell behaviors, including proliferation, differentiation, and survival. […] KRAS G12V, G12D, and G12S variants are common in human cancers and Ras inhibitors binding in or near the Switch II pocket may provide mutant binding selectivity. RAS mutations are known to be often associated with pancreatic, colorectal and non-small-cell lung carcinomas (Lone, A. M. et al. J. Am. Chem. Soc. 2011,133, 11665-74, which is entirely incorporated herein by reference; Dillon, M. B.; Bachovchin, D. A.; Brown, S. J.; Finn, M. G.; Rosen, H.; Cravatt, B. F.; Mowen, K. A. ACS Chem. Biol. 2012, 7, 1198-204, which is entirely incorporated herein by reference; Bachovchin, D. A.; Brown, S. J.; Rosen, H.; Cravatt, B. F. Nat. Biotechnol. 2009, 27, 387-94, Ostrem, J. M.; Peters, U.; Sos, M. L.; Wells, J. A.; Shokat, K. M. Nature 2013, 503, 548-551. Ryan M. B. and Corcoran R. B, Nat. Rev Clin Onco. 2018, 11, 709-720.). Ras proteins are key members in the Ras/Raf/Mitogen-activated protein kinase (MAPK) signaling pathway. This pathway regulates a wide variety of cellular processes, including proliferation, differentiation, apoptosis, and stress responses. One way to measure the impact of an inhibitor of Ras proteins is to measure downstream phosphorylation of proteins in the MAPK pathway. The MAPK pathway includes extracellular signal-regulated kinases named ERK1 and ERK2, which are serine-threonine kinases that regulate cellular signaling under both normal and oncogenic conditions. ERK expression and hyperactivation via phosphorylation plays a major role in cancer progression and are downstream of Ras proteins. The assay used for measuring the downstream impact of Ras inhibition is the use of a highly sensitive cell-based readout of ERK phosphorylation (pERK) specifically on Threonine (Thr) 202 and Tyrosine (Tyr) 204 in a KRAS G12V dependent lung adenocarcinoma cell line, NCI-H441 (ATCC Cat #HTB-174). The assay described herein is suitable for assessing inhibition of Ras and can be tailored for any of the predominant oncogenic mutations in any isoform of Ras (e.g., KRAS, HRAS, and NRAS) by changing the cell line.
pERK was measured using an advanced pERK assay designed for the robust and highly sensitive quantification of ERK phosphorylation on Thr202/Tyr204. This assay is intended for the simple, rapid, and direct detection of endogenous levels of ERK1/2 in cells, but only when ERK is phosphorylated at Thr202 and Tyr204 (Perkin Elmer Catalog #64AERPEH). pERK was detected in a FRET based sandwich assay format using 2 different specific antibodies, one labelled with Eu3+-Cryptate (donor) and the second with d2 (acceptor). When the dyes are in close proximity, the excitation of the donor with a light source (laser or flash lamp) triggers a Fluorescence Resonance Energy Transfer (FRET) towards the acceptor, which in turn fluoresces at a specific wavelength (665 nm). The specific signal modulates positively in proportion to p-ERK1/2 (Thr202/Tyr204). The simple mix-and-read protocol eliminates all wash steps for faster analysis and high-quality output. Briefly, cells were diluted to the desired concentration per well based on a growth curve showing ˜75% confluence within a 24-hour time period at no less than 95% viability. Cell suspension (24 μL) were added into each well of 384-well culture plate and maintained in 37° C. 5% CO2 incubator overnight prior to assay. All compounds were transferred to stock plates using TECAN (EVO200) liquid handler using DMSO as the solubilizing and dilution agent. Test compounds were transferred onto adherent cells using an Echo655 liquid handler. DMSO was employed as negative control. Cells were incubated with test compounds for 1 hr in a 37° C., 5% CO2 incubator following compound addition. […]
`[2H]C1([2H])CC2(CC2)[C@@]2(C([2H])([2H])Oc3nc(N4CCOC[C@H]5[C@H](F)[C@H]54)c4cnc(-c5cc(N)cc6ccc(F)c(C#C)c56)c(F)c4n3)C[C@@]([2H])(F)CN12` (single isomer, unassigned) [Example 202]: the IC50 is below 50 nM. On the same count and under the same terms, with `[2H]C1([2H])CC2(CC2)[C@@]2(C([2H])([2H])Oc3nc(N4CCOC[C@H]5[C@H](F)[C@H]54)c4cnc(-c5cc(N)cc6ccc(F)c(C#C)c56)c(F)c4n3)C[C@]([2H])(F)CN12` (single isomer, unassigned) [Example 203] the figure was below 50 nM. On the same count and under the same terms, the same measure for `[2H]C1([2H])CC2(CC2)[C@]2(C([2H])([2H])Oc3nc(N4CCOC[C@H]5[C@H](F)[C@H]54)c4cnc(-c5cc(N)cc6ccc(F)c(C#C)c56)c(F)c4n3)C[C@]([2H])(F)CN12` (single isomer, unassigned) [Example 204]: below 50 nM.

In turn, `[2H]C1([2H])CC2(CC2)[C@]2(C([2H])([2H])Oc3nc(N4CCOC[C@H]5[C@H](F)[C@H]54)c4cnc(-c5cc(N)cc6ccc(F)c(C#C)c56)c(F)c4n3)C[C@@]([2H])(F)CN12` (single isomer, unassigned) [Example 205] gave an IC50 below 50 nM.

The same assay, now with this note: Homo sapiens, NCI-H441, cellular pERK HTRF, NCI-H441 (KRAS G12V) cells.
The molecule `[2H]C([2H])(Oc1nc(N2CCOC[C@H]3[C@H](F)[C@H]32)c2cc(C(F)(F)F)c(-c3cccc4sc(N)c(C#N)c34)c(F)c2n1)[C@@]12CCCN1C[C@H](F)C2` (atropisomer, axis not shown; (aS)) [Example 466, 2-amino-4-((S)-8-fluoro-4-((1S,7S,8S)-8-fluoro-5-oxa-2-azabicyclo[5.1.0]octan-2-yl)-2-(((2R,7aS)-2-fluorotetrahydro-1H-pyrrolizin-7a(5H)-yl)methoxy-d2)-6-(trifluoromethyl)quinazolin-7-yl)benzo[b]thiophene-3-carbonitrile] registered an IC50 below 50 nM.

Still in this assay, the particulars now being: cellular pERK HTRF, NCI-H441 (KRAS G12V) cells.
Turning to `[2H]C([2H])(Oc1nc(N2CCOC[C@H]3[C@H](F)[C@H]32)c2cc(F)c(-c3cc(N)cc4ccc(F)c(C#C)c34)c(C)c2n1)[C@@]12CCCN1C[C@H](F)C2` (atropisomer, axis not shown; (aS)) [Example 435, 5-ethynyl-6-fluoro-4-((S)-6-fluoro-4-((1S,7S,8S)-8-fluoro-5-oxa-2-azabicyclo[5.1.0]octan-2-yl)-2-(((2R,7aS)-2-fluorotetrahydro-1H-pyrrolizin-7a(5H)-yl)methoxy-d2)-8-methylquinazolin-7-yl)naphthalen-2-amine], the IC50 was below 50 nM. Still for that read-out and setting: the same measure for `[2H]C([2H])(Oc1nc(N2CCOC[C@H]3[C@H](F)[C@H]32)c2cc(C#N)c(-c3ccc(F)c4sc(N)c(C#N)c34)c(C)c2n1)[C@@]12CCCN1C[C@H](F)C2` (atropisomer, axis not shown; (aS)) [Example 440, (R)-7-(2-amino-3-cyano-7-fluorobenzo[b]thiophen-4-yl)-4-((1S,7S,8S)-8-fluoro-5-oxa-2-azabicyclo[5.1.0]octan-2-yl)-2-(((2R,7aS)-2-fluorotetrahydro-1H-pyrrolizin-7a(5H)-yl)methoxy-d2)-8-methylquinazoline-6-carbonitrile]: below 50 nM. On the same count and under the same terms, with `[2H]C([2H])(Oc1nc(N2CCOC[C@H]3[C@H](F)[C@H]32)c2cc(C#N)c(-c3ccc(F)c4sc(N)c(C#N)c34)c(C)c2n1)[C@@]12CCCN1C[C@H](F)C2` (atropisomer, axis not shown; (aS)) [Example 441, (S)-7-(2-amino-3-cyano-7-fluorobenzo[b]thiophen-4-yl)-4-((1S,7S,8S)-8-fluoro-5-oxa-2-azabicyclo[5.1.0]octan-2-yl)-2-(((2R,7aS)-2-fluorotetrahydro-1H-pyrrolizin-7a(5H)-yl)methoxy-d2)-8-methylquinazoline-6-carbonitrile] the figure was 500 to 10000 nM. `[2H]C([2H])(Oc1nc(N2CCOC[C@H]3[C@H](F)[C@H]32)c2cc(F)c(-c3ccc(F)c4sc(N)c(C#N)c34)c(C)c2n1)[C@@]12CCCN1C[C@H](F)C2` (atropisomer, axis not shown; (aS)) [Example 450, 2-amino-7-fluoro-4-((S)-6-fluoro-4-((1S,7S,8S)-8-fluoro-5-oxa-2-azabicyclo[5.1.0]octan-2-yl)-2-(((2R,7aS)-2-fluorotetrahydro-1H-pyrrolizin-7a(5H)-yl)methoxy-d2)-8-methylquinazolin-7-yl)benzo[b]thiophene-3-carbonitrile] gave an IC50 of 500 to 10000 nM. Still for that read-out and setting: with `[2H]C([2H])(Oc1nc(N2CCOC[C@H]3[C@H](F)[C@H]32)c2cc(F)c(-c3ccc(F)c4sc(N)c(C#N)c34)c(C)c2n1)[C@@]12CCCN1C[C@H](F)C2` (atropisomer, axis not shown; (aS)) [Example 451, 2-amino-7-fluoro-4-((R)-6-fluoro-4-((1S,7S,8S)-8-fluoro-5-oxa-2-azabicyclo[5.1.0]octan-2-yl)-2-(((2R,7aS)-2-fluorotetrahydro-1H-pyrrolizin-7a(5H)-yl)methoxy-d2)-8-methylquinazolin-7-yl)benzo[b]thiophene-3-carbonitrile] the figure was below 50 nM; with `[2H]C([2H])(Oc1nc(N2CCOC[C@H]3[C@H](F)[C@H]32)c2cc(F)c(-c3cc(O)cc4ccc(F)c(C#C)c34)c(F)c2n1)[C@@]12CCCN1C[C@H](F)C2` (atropisomer, axis not shown; (aS)) [Example 453, 4-((R)-6,8-difluoro-4-((1S,7S,8S)-8-fluoro-5-oxa-2-azabicyclo[5.1.0]octan-2-yl)-2-(((2R,7aS)-2-fluorotetrahydro-1H-pyrrolizin-7a(5H)-yl)methoxy-d2)quinazolin-7-yl)-5-ethynyl-6-fluoronaphthalen-2-ol], below 50 nM; with `[2H]C([2H])(Oc1nc(N2CCOC[C@H]3[C@H](F)[C@H]32)c2cc(F)c(-c3cc(O)cc4ccc(F)c(C#C)c34)c(F)c2n1)[C@@]12CCCN1C[C@H](F)C2` (atropisomer, axis not shown; (aS)) [Example 454, 4-((S)-6,8-difluoro-4-((1S,7S,8S)-8-fluoro-5-oxa-2-azabicyclo[5.1.0]octan-2-yl)-2-(((2R,7aS)-2-fluorotetrahydro-1H-pyrrolizin-7a(5H)-yl)methoxy-d2)quinazolin-7-yl)-5-ethynyl-6-fluoronaphthalen-2-ol], 500 to 10000 nM. Still for that read-out and setting: the same measure for `[2H]C([2H])(Oc1nc(N2CCOC[C@H]3[C@H](F)[C@H]32)c2cc(F)c(-c3cc(O)cc4ccc(F)c(C#C)c34)c(C)c2n1)[C@@]12CCCN1C[C@H](F)C2` (atropisomer, axis not shown; (aS)) [Example 467, 5-Ethynyl-6-fluoro-4-((R)-6-fluoro-4-((1S,7S,8S)-8-fluoro-5-oxa-2-azabicyclo[5.1.0]octan-2-yl)-2-(((2R,7aS)-2-fluorotetrahydro-1H-pyrrolizin-7a(5H)-yl)methoxy-d2)-8-methylquinazolin-7-yl)naphthalen-2-ol]: 500 to 10000 nM; for `[2H]C([2H])(Oc1nc(N2CCOC[C@H]3[C@H](F)[C@H]32)c2cc(C(F)(F)F)c(-c3cccc4sc(N)c(C#N)c34)c(F)c2n1)[C@@]12CCCN1C[C@H](F)C2` (atropisomer, axis not shown; (aS)) [Example 468, 2-amino-4-((R)-8-fluoro-4-((1S,7S,8S)-8-fluoro-5-oxa-2-azabicyclo[5.1.0]octan-2-yl)-2-(((2R,7aS)-2-fluorotetrahydro-1H-pyrrolizin-7a(5H)-yl)methoxy-d2)-6-(trifluoromethyl)quinazolin-7-yl)benzo[b]thiophene-3-carbonitrile]: below 50 nM.
